Source: ChEMBL document CHEMBL3593172, “4-(N-Phenyl-N'-substituted benzenesulfonyl)-6-(4-hydroxyphenyl)quinolines as inhibitors of mammalian target of rapamycin” (Bioorg Med Chem, 2015)
pIC50: −log10 of the molar value. Calls of active or inactive are those of the source. The calls are words filed in the database; no cut-off is given here.

Key:
[1] = target: Serine/threonine-protein kinase mTOR (Homo sapiens) (UniProt P42345); test: Inhibition of mTOR (unknown origin) assessed as p70S6K phosphorylation after 30 mins by ELISA
[2] = system: HCT-116; test: Cytotoxicity against human HCT116 cells assessed as growth inhibition at 30 uM after 24 to 48 hrs by MTT assay relative to control; assay type: functional; conditions: read-out: GI
[3] = system: HCT-116; test: Cytotoxicity against human HCT116 cells assessed as growth inhibition at 10 uM after 24 to 48 hrs by MTT assay relative to control; assay type: functional; conditions: read-out: GI
[4] = system: HepG2; test: Cytotoxicity against human HepG2 cells assessed as growth inhibition at 30 uM after 24 to 48 hrs by MTT assay relative to control; assay type: functional; conditions: read-out: GI
[5] = Cytotoxicity against human MIAPaCa2 cells assessed as growth inhibition at 30 uM after 24 to 48 hrs by MTT assay relative to control; assay type: functional; conditions: MIA PaCa-2, read-out: GI
[6] = system: PC-3; test: Cytotoxicity against human PC3 cells assessed as growth inhibition at 100 uM after 24 to 48 hrs by MTT assay relative to control; assay type: functional; conditions: read-out: GI
[7] = system: HCT-116; test: cells; conditions: Homo sapiens, HCT-116, 48 h
Description: Cytotoxicity against human HCT116 cells assessed as inhibition of cell proliferation after 48 hrs by MTT assay

[8] = system: HL-60; test: Cytotoxicity against human HL60 cells assessed as growth inhibition at 30 uM after 24 to 48 hrs by MTT assay relative to control; assay type: functional; conditions: read-out: GI
[9] = system: HepG2; test: cells; conditions: Homo sapiens, HepG2, 48 h
Description: Cytotoxicity against human HepG2 cells assessed as inhibition of cell proliferation after 48 hrs by MTT assay

[10] = system: HL-60; test: Cytotoxicity against human HL60 cells assessed as growth inhibition at 100 uM after 24 to 48 hrs by MTT assay relative to control; assay type: functional; conditions: read-out: GI
[11] = system: HepG2; test: Cytotoxicity against human HepG2 cells assessed as growth inhibition at 100 uM after 24 to 48 hrs by MTT assay relative to control; assay type: functional; conditions: read-out: GI
[12] = system: PC-3; test: Cytotoxicity against human PC3 cells assessed as growth inhibition at 10 uM after 24 to 48 hrs by MTT assay relative to control; assay type: functional; conditions: read-out: GI
[13] = system: PC-3; test: cells; conditions: Homo sapiens, PC-3, 48 h
Description: Cytotoxicity against human PC3 cells assessed as inhibition of cell proliferation after 48 hrs by MTT assay

[14] = system: HL-60; test: cells; conditions: Homo sapiens, HL-60, 48 h
Description: Cytotoxicity against human HL60 cells assessed as inhibition of cell proliferation after 48 hrs by MTT assay

[15] = Cytotoxicity against human MIAPaCa2 cells assessed as growth inhibition at 100 uM after 24 to 48 hrs by MTT assay relative to control; assay type: functional; conditions: MIA PaCa-2, read-out: GI
[16] = Cytotoxicity against human MIAPaCa2 cells assessed as growth inhibition at 10 uM after 24 to 48 hrs by MTT assay relative to control; assay type: functional; conditions: MIA PaCa-2, read-out: GI
[17] = system: HepG2; test: Cytotoxicity against human HepG2 cells assessed as growth inhibition at 10 uM after 24 to 48 hrs by MTT assay relative to control; assay type: functional; conditions: read-out: GI
[18] = system: PC-3; test: Cytotoxicity against human PC3 cells assessed as growth inhibition at 30 uM after 24 to 48 hrs by MTT assay relative to control; assay type: functional; conditions: read-out: GI
[19] = cells; conditions: Homo sapiens, MIA PaCa-2, 48 h
Description: Cytotoxicity against human MIAPaCa2 cells assessed as inhibition of cell proliferation after 48 hrs by MTT assay

[20] = system: HCT-116; test: Cytotoxicity against human HCT116 cells assessed as growth inhibition at 100 uM after 24 to 48 hrs by MTT assay relative to control; assay type: functional; conditions: read-out: GI
[21] = system: HL-60; test: Cytotoxicity against human HL60 cells assessed as growth inhibition at 10 uM after 24 to 48 hrs by MTT assay relative to control; assay type: functional; conditions: read-out: GI
[22] = Disruption of mitochondrial membrane potential in human MIAPaCa2 cells at 10 uM after 24 hrs by Rh123 dye-based flow cytometric analysis (reference value: 6%); assay type: functional, MIA PaCa-2
[23] = Cell cycle arrest in human MIAPaCa2 cells assessed as accumulation at G1 phase at 10 uM after 24 hrs by propidium iodide staining-based flow cytometric analysis (reference value: 51%); assay type: functional; conditions: MIA PaCa-2
[24] = Cell cycle arrest in human MIAPaCa2 cells assessed as accumulation at G2 phase at 30 uM after 24 hrs by propidium iodide staining-based flow cytometric analysis (reference value: 5%); assay type: functional; conditions: MIA PaCa-2
[25] = system: MIA PaCa-2; test: Effect on mTORC2 complex in human MIAPaCa2 cells assessed as p-Akt phosphorylation at S473 at 5 to 10 uM measured at 2 hrs by Western blot analysis; assay type: cell-based
[26] = Cell cycle arrest in human MIAPaCa2 cells assessed as accumulation at G1 phase at 30 uM after 24 hrs by propidium iodide staining-based flow cytometric analysis (reference value: 51%); assay type: functional; conditions: MIA PaCa-2
[27] = Cell cycle arrest in human MIAPaCa2 cells assessed as accumulation at S phase at 30 uM after 24 hrs by propidium iodide staining-based flow cytometric analysis (reference value: […]%); assay type: functional; conditions: MIA PaCa-2
[28] = Disruption of mitochondrial membrane potential in human MIAPaCa2 cells at 30 uM after 24 hrs by Rh123 dye-based flow cytometric analysis (reference value: 6%); assay type: functional, MIA PaCa-2
[29] = system: MIA PaCa-2; test: Effect on P110alpha expression in human MIAPaCa2 cells at 5 to 10 uM measured after 2 to 4 hrs by Western blot analysis; assay type: functional, cell-based
[30] = Cell cycle arrest in human MIAPaCa2 cells assessed as accumulation at G2 phase at 10 uM after 24 hrs by propidium iodide staining-based flow cytometric analysis (reference value: 5%); assay type: functional; conditions: MIA PaCa-2
[31] = Cell cycle arrest in human MIAPaCa2 cells assessed as apoptotic cells at 20 uM after 24 hrs by propidium iodide staining-based flow cytometric analysis (reference value: 0.1%); assay type: functional; conditions: MIA PaCa-2
[32] = Cell cycle arrest in human MIAPaCa2 cells assessed as accumulation at G2 phase at 20 uM after 24 hrs by propidium iodide staining-based flow cytometric analysis (reference value: 5%); assay type: functional; conditions: MIA PaCa-2
[33] = Cell cycle arrest in human MIAPaCa2 cells assessed as apoptotic cells at 10 uM after 24 hrs by propidium iodide staining-based flow cytometric analysis (reference value: 0.1%); assay type: functional; conditions: MIA PaCa-2
[34] = Disruption of mitochondrial membrane potential in human MIAPaCa2 cells at 20 uM after 24 hrs by Rh123 dye-based flow cytometric analysis (reference value: 6%); assay type: functional, MIA PaCa-2
[35] = Cell cycle arrest in human MIAPaCa2 cells assessed as accumulation at S phase at 10 uM after 24 hrs by propidium iodide staining-based flow cytometric analysis (reference value: […]%); assay type: functional; conditions: MIA PaCa-2
[36] = Cell cycle arrest in human MIAPaCa2 cells after 24 hrs by propidium iodide staining-based flow cytometric analysis; assay type: functional; conditions: MIA PaCa-2
[37] = Cell cycle arrest in human MIAPaCa2 cells assessed as accumulation at G1 phase at 20 uM after 24 hrs by propidium iodide staining-based flow cytometric analysis (reference value: 51%); assay type: functional; conditions: MIA PaCa-2
[38] = Cell cycle arrest in human MIAPaCa2 cells assessed as accumulation at S phase at 20 uM after 24 hrs by propidium iodide staining-based flow cytometric analysis (reference value: […]%); assay type: functional; conditions: MIA PaCa-2
[39] = Cell cycle arrest in human MIAPaCa2 cells assessed as apoptotic cells at 30 uM after 24 hrs by propidium iodide staining-based flow cytometric analysis (reference value: 0.1%); assay type: functional; conditions: MIA PaCa-2

Row | SMILES | inhibition of growth at 30 µM [2] | inhibition of growth at 10 µM [3] | inhibition of growth at 30 µM [4] | inhibition of growth at 30 µM [5] | inhibition of growth at 100 µM [6] | pIC50 [7] | inhibition of growth at 30 µM [8] | pIC50 [9] | inhibition of growth at 100 µM [10] | inhibition of growth at 100 µM [11] | inhibition of growth at 10 µM [12] | pIC50 [13] | pIC50 [14] | inhibition of growth at 100 µM [15] | inhibition of growth at 10 µM [16] | inhibition of growth at 10 µM [17] | inhibition of growth at 30 µM [18] | pIC50 [19] | inhibition of growth at 100 µM [20] | inhibition of growth at 10 µM [21] | also measured
1 | COC[C@H]1OC(=O)c2coc3c2[C@@]1(C)C1=C(C3=O)[C@@H]2CCC(=O)[C@@]2(C)C[C@H]1OC(C)=O |  |  |  |  |  |  |  |  |  |  |  |  |  |  |  |  |  |  |  |  | inhibition [1]: 100%
2 | Cc1c(C)c(C)c(S(=O)(=O)N(c2ccccc2)c2ccnc3ccc(-c4ccc(O)cc4)cc23)c(C)c1C | 15% | 14% | 2% | 17% | 15% | < 4.00 | 8% | < 4.00 | 15% | 10% | 12% | < 4.00 | < 4.00 | 22% | 16% | 1% | 14% | < 4.00 | 24% | 5% | 
3 | O=S(=O)(c1ccc(F)cc1F)N(c1ccccc1)c1ccnc2ccc(-c3ccc(O)cc3)cc12 | 20% | 2% | 89% | 84% | 73% | 4.10 | 88% | > 5.00 | 89% | 90% | 26% | 4.60 | > 5.00 | 87% | 80% | 87% | 61% | > 5.00 | 58% | 87% | 
4 | CC(=O)Nc1ccc(S(=O)(=O)N(c2ccccc2)c2ccnc3ccc(-c4ccc(O)cc4)cc23)cc1 | 25% | 19% | 83% | 89% | 25% | > 4.00 | 93% | 4.66 | 94% | 87% | 12% | 4.12 | 4.80 | 89% | 64% | 5% | 14% | 5.15 | 29% | 25% | Activity [22]: 13%; Activity [23]: 59%; Activity [24]: 15%; Activity [25]: inactive; Activity [26]: 67%; Activity [27]: 19%; Activity [28]: 42%; Activity [29]: inactive; Activity [30]: 19%; Activity [31]: 1%; Activity [32]: 13%; Activity [33]: 1%; Activity [34]: 23%; Activity [35]: 22%; Activity [36]: Dose-dependent effect; Activity [37]: 66%; Activity [38]: 21%; Activity [39]: 6%
5 | O=S(=O)(c1ccc(F)cc1)N(c1ccccc1)c1ccnc2ccc(-c3ccc(O)cc3)cc12 | 57% | 20% | 10% | 30% | 87% | 4.57 | 51% | 4.07 | 79% | 60% | 16% | 4.38 | 4.55 | 70% | 9% | 1% | 43% | 4.19 | 92% | 2% | 
6 | O=[N+]([O-])c1cc(S(=O)(=O)N(c2ccccc2)c2ccnc3ccc(-c4ccc(O)cc4)cc23)ccc1C(F)(F)F | 23% | 20% | 3% | 60% | 84% | < 4.00 | 92% | < 4.00 | 93% | 8% | 39% | 4.74 | > 5.00 | 79% | 45% | 3% | 68% | 4.80 | 29% | 90% | 
7 | O=S(=O)(c1ccccc1)N(c1ccccc1)c1ccnc2ccc(-c3ccc(O)cc3)cc12 | 57% | 8% | 90% | 84% | 76% | 4.55 | 89% | 4.92 | 91% | 91% | 15% | 4.60 | > 5.00 | 87% | 80% | 40% | 61% | > 5.00 | 89% | 87% | 
8 | Oc1ccc(-c2ccc3nccc(Nc4ccccc4)c3c2)cc1 | 53% | 8% | 53% | 91% | 90% | 4.57 | 65% | 4.74 | 82% | 86% | 27% | 4.68 | 4.85 | 93% | 28% | 8% | 74% | 4.74 | 86% | 41% | 
